Where “and” joins values, the source holds several entries; their conditions need not be identical. Equal values may be shown once.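 Briefly, cells in 96-well plates were exposed to five compound concentrations for 48 h, and endpoints were estimated by linear interpolation. The concentration for 50% growth inhibition is given as GI50. TGI marks complete inhibition of growth.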
These molecules were tested on A549 NSCLC (assay: DTP human tumour cell line panel, 48 h).

Q: With C=C1C(=O)CC2C1CC(=O)/C(C)=C/CCC(C)(O)C2O (stereo not drawn) as the molecule, how does the TGI read?
A: 46.5 µM

Q: For O=C1C=C/C(=N\N=C(c2ccccc2)c2ccccc2)O1, which TGI is on record?
A: > 10 µM

Q: Which TGI does the source give for Cc1ccc(/C=N\NC2c3cc(Cl)ccc3Nc3nc(=O)[nH]c(C)c32)cc1 (stereo not drawn) here?
A: > 100 µM

Q: For O=C(O)c1ccccc1CC(Cc1ccc2c(c1)CCC2)C(=O)O (stereo not drawn), which TGI is on record?
A: > 100 µM

Q: Cn1c(SCc2ccc(F)cc2)nnc1C12CC3CC(CC(C3)C1)C2 was tested. Which TGI did it give?
A: > 100 µM

Q: CCCCCC#CCOC(=O)C(=[N+]=[N-])P(=O)(c1ccccc1)c1ccccc1 was tested. Which TGI did it give?
A: > 10 µM

Q: COc1ccc(C(=O)/C=C/c2ccc(OCCCOc3ccc(/C=C/C(=O)c4ccc(OC)cc4)cc3)cc2)cc1 was tested. Which TGI did it give?
A: > 100 µM

Q: How did the TGI turn out when O=C(O)COc1ccccc1C(=O)Nc1ccccc1 was run?
A: > 100 µM

Q: For COc1ccc(C2c3cn[nH]c3CC3CCCCC32)cc1 (stereo not drawn), which TGI is on record?
A: 30.9 µM

Q: Which TGI does the source give for O=C1CC2(CCC(O)(c3ccc4ccccc4c3)C(C(=O)c3ccc4ccccc4c3)C2)C(=O)c2ccccc2N1 (stereo not drawn) here?
A: > 100 µM

Q: How did the TGI turn out when COc1ccc(C2OC(c3ccncc3)=NN2C)cc1F (stereo not drawn) was run?
A: > 100 µM

Q: With COc1cc2c(cc1OC)C(C(c1ccccc1)c1ccccc1)N(C)CC2 (stereo not drawn) as the molecule, how does the TGI read?
A: > 100 µM

Q: Which TGI does the source give for CCOC(=O)N1CCC(N[C@@H]2c3cc4c(cc3C(c3cc(OC)c(O)c(OC)c3)C3C(=O)OC[C@@H]32)OCO4)CC1 (stereo partly drawn) here?
A: 1.44 µM and 5.01 µM

Q: Which TGI does the source give for C[N+](C)([O-])CCOc1cc2c(c3ccccc13)-c1ccccc1C2=O here?
A: 54.6 µM

Q: For CCOC(=O)C1S/C(=N\C(=N)N[N+](=O)[O-])N=C1C (stereo not drawn), which TGI is on record?
A: > 100 µM

Q: With NS(=O)(=O)c1ccc(NC(=S)/N=C/C2=C(O)c3ccccc3C2=O)cc1 as the molecule, how does the TGI read?
A: > 100 µM

Q: O=C1NC2c3c(I)sc(I)c3C(O)C2O1 (stereo not drawn) was tested. Which TGI did it give?
A: > 100 µM

Q: Which TGI does the source give for Cc1nc(C)c(C(=O)NNC(=O)C[N+](C)(C)C)cc1C(=O)NNC(=O)C[N+](C)(C)C here?
A: > 100 µM

Q: S=C1NC2=C(CSC/C2=C\c2cccc(Br)c2)C(c2cccc(Br)c2)N1 (stereo not drawn) was tested. Which TGI did it give?
A: > 100 µM

Q: How did the TGI turn out when Clc1ccc(-c2nnc3sc4nc5ccccc5c-4nn23)c(Cl)c1 was run?
A: > 100 µM

Q: With CCCCCCCCCCCCCCCCNc1cccc2ccccc12 as the molecule, how does the TGI read?
A: > 100 µM

Q: For C=C(C(=O)OCC)C(=O)OCC, which TGI is on record?
A: > 100 µM

Q: How did the TGI turn out when O=C1OCC/C1=N/O was run?
A: > 100 µM

Q: How did the TGI turn out when CC(O)CNC(=O)C(C)Oc1ccc(OCC2CCCCC2)cc1 (stereo not drawn) was run?
A: > 100 µM

Q: How did the TGI turn out when CSC1=N/C(=C\c2ccc(C)cc2)C(=O)N1CN1CCCCC1 was run?
A: > 100 µM

Q: For Cc1ccc(S(=O)(=O)n2c3c(c4ccccc42)CCN2C[C@H]([C@H](C)Br)CC[C@@H]32)cc1, which TGI is on record?
A: > 100 µM

Q: For C[n+]1c(/C=C/c2c(O)ccc3ccccc23)ccc2ccccc21, which GI50 is on record?
A: 7.76 µM

Q: What about the TGI of the same molecule?
A: 16.1 µM

Q: For Cc1c(/C=N\NC(=S)NCCNC(=S)N/N=C\c2c(C)n(C)n(-c3ccccc3)c2=O)c(=O)n(-c2ccccc2)n1C, which TGI is on record?
A: > 100 µM

Q: Which TGI does the source give for O=P(O)(O)C(N=C(Nc1ccccc1)Nc1ccccc1)P(=O)(O)O here?
A: > 100 µM

Q: How did the TGI turn out when CCCNc1ncnc2c1ncn2C was run?
A: > 100 µM

Q: CCOC(=O)c1c(-c2ccc(O)c(OC)c2)c(C#N)c(=S)n(C2OC(CO)C(O)C(O)C2O)c1-c1ccccc1 (stereo not drawn) was tested. Which TGI did it give?
A: > 100 µM

Q: With COC(C)(C)C1(O)CC[C@@H](C)CC1=O (stereo partly drawn) as the molecule, how does the TGI read?
A: > 100 µM

The molecules below were run on BT-549 breast (assay: DTP human tumour cell line panel, 48 h).

Q: Which TGI does the source give for CC(=O)NC1C(OCc2ccccc2)OC(CO)C(O)C1OCC(=O)N[C@@H](C)C(=O)N[C@H](CCC(=O)NCCCNc1c2ccccc2nc2cccc([N+](=O)[O-])c12)C(N)=O (stereo partly drawn) here?
A: 0.287 µM

Q: CCCCCC#CCOC(=O)C(=[N+]=[N-])P(=O)(c1ccccc1)c1ccccc1 was tested. Which TGI did it give?
A: > 10 µM

Q: For COc1ccc(C2c3cn[nH]c3CC3CCCCC32)cc1 (stereo not drawn), which TGI is on record?
A: 33.5 µM

Q: O=C1CC2(CCC(O)(c3ccc4ccccc4c3)C(C(=O)c3ccc4ccccc4c3)C2)C(=O)c2ccccc2N1 (stereo not drawn) was tested. Which TGI did it give?
A: > 100 µM

Q: Which TGI does the source give for Cc1nc(C)c(C(=O)NNC(=O)C[N+](C)(C)C)cc1C(=O)NNC(=O)C[N+](C)(C)C here?
A: > 100 µM

Q: Which TGI does the source give for Clc1ccc(-c2nnc3sc4nc5ccccc5c-4nn23)c(Cl)c1 here?
A: 93.8 µM

Q: For C=C(C(=O)OCC)C(=O)OCC, which TGI is on record?
A: > 100 µM

Q: Cc1c(/C=N\NC(=S)NCCNC(=S)N/N=C\c2c(C)n(C)n(-c3ccccc3)c2=O)c(=O)n(-c2ccccc2)n1C was tested. Which TGI did it give?
A: > 100 µM

Q: How did the TGI turn out when O=P(O)(O)C(N=C(Nc1ccccc1)Nc1ccccc1)P(=O)(O)O was run?
A: > 100 µM

Q: Which TGI does the source give for C=C1CC(C#N)(C#N)[C@H]2C3CCCC3C[C@@H]12 (stereo partly drawn) (tested in a mixture with another compound) here?
A: 56.8 µM

Q: For COC(C)(C)C1(O)CC[C@@H](C)CC1=O (stereo partly drawn), which TGI is on record?
A: > 100 µM

The molecules below were run on CCRF-CEM leukemia (assay: DTP human tumour cell line panel, 48 h).

Q: For C=C1C(=O)CC2C1CC(=O)/C(C)=C/CCC(C)(O)C2O (stereo not drawn), which TGI is on record?
A: 13.8 µM

Q: For O=C1C=C/C(=N\N=C(c2ccccc2)c2ccccc2)O1, which TGI is on record?
A: > 10 µM

Q: With Cc1ccc(/C=N\NC2c3cc(Cl)ccc3Nc3nc(=O)[nH]c(C)c32)cc1 (stereo not drawn) as the molecule, how does the TGI read?
A: > 100 µM

Q: For CC(=O)NC1C(OCc2ccccc2)OC(CO)C(O)C1OCC(=O)N[C@@H](C)C(=O)N[C@H](CCC(=O)NCCCNc1c2ccccc2nc2cccc([N+](=O)[O-])c12)C(N)=O (stereo partly drawn), which TGI is on record?
A: > 100 µM

Q: For O=C(O)c1ccccc1CC(Cc1ccc2c(c1)CCC2)C(=O)O (stereo not drawn), which TGI is on record?
A: > 100 µM

Q: With Cn1c(SCc2ccc(F)cc2)nnc1C12CC3CC(CC(C3)C1)C2 as the molecule, how does the TGI read?
A: 43.3 µM

Q: How did the TGI turn out when COc1ccc(C(=O)/C=C/c2ccc(OCCCOc3ccc(/C=C/C(=O)c4ccc(OC)cc4)cc3)cc2)cc1 was run?
A: > 100 µM

Q: How did the TGI turn out when CCOc1cc(/C=C2/C(C)=NN(c3cccc(Cl)c3)/C2=N/c2nc3ccccc3s2)ccc1O was run?
A: > 100 µM

Q: Which TGI does the source give for O=C(O)COc1ccccc1C(=O)Nc1ccccc1 here?
A: > 100 µM

Q: With COc1ccc(C2c3cn[nH]c3CC3CCCCC32)cc1 (stereo not drawn) as the molecule, how does the TGI read?
A: 53.9 µM

Q: O=C1CC2(CCC(O)(c3ccc4ccccc4c3)C(C(=O)c3ccc4ccccc4c3)C2)C(=O)c2ccccc2N1 (stereo not drawn) was tested. Which TGI did it give?
A: > 100 µM

Q: COc1ccc(C2OC(c3ccncc3)=NN2C)cc1F (stereo not drawn) was tested. Which TGI did it give?
A: > 100 µM

Q: How did the TGI turn out when COc1cc2c(cc1OC)C(C(c1ccccc1)c1ccccc1)N(C)CC2 (stereo not drawn) was run?
A: > 100 µM

Q: For CCOC(=O)N1CCC(N[C@@H]2c3cc4c(cc3C(c3cc(OC)c(O)c(OC)c3)C3C(=O)OC[C@@H]32)OCO4)CC1 (stereo partly drawn), which TGI is on record?
A: 18.9 µM and > 25 µM

Q: Which TGI does the source give for C[N+](C)([O-])CCOc1cc2c(c3ccccc13)-c1ccccc1C2=O here?
A: > 83.7 µM

Q: With NS(=O)(=O)c1ccc(NC(=S)/N=C/C2=C(O)c3ccccc3C2=O)cc1 as the molecule, how does the TGI read?
A: > 100 µM

Q: For O=C1NC2c3c(I)sc(I)c3C(O)C2O1 (stereo not drawn), which TGI is on record?
A: > 100 µM

Q: With S=C1NC2=C(CSC/C2=C\c2cccc(Br)c2)C(c2cccc(Br)c2)N1 (stereo not drawn) as the molecule, how does the TGI read?
A: > 100 µM

Q: Clc1ccc(-c2nnc3sc4nc5ccccc5c-4nn23)c(Cl)c1 was tested. Which TGI did it give?
A: > 100 µM

Q: Which TGI does the source give for CCCCCCCCCCCCCCCCNc1cccc2ccccc12 here?
A: > 100 µM

Q: For C=C(C(=O)OCC)C(=O)OCC, which TGI is on record?
A: > 100 µM

Q: For O=C1OCC/C1=N/O, which TGI is on record?
A: > 100 µM

Q: With CC(O)CNC(=O)C(C)Oc1ccc(OCC2CCCCC2)cc1 (stereo not drawn) as the molecule, how does the TGI read?
A: > 100 µM

Q: With Cc1ccc(S(=O)(=O)n2c3c(c4ccccc42)CCN2C[C@H]([C@H](C)Br)CC[C@@H]32)cc1 as the molecule, how does the TGI read?
A: > 100 µM

Q: How did the GI50 turn out when C[n+]1c(/C=C/c2c(O)ccc3ccccc23)ccc2ccccc21 was run?
A: 2.38 µM

Q: And the TGI?
A: 17.3 µM

Q: CCCNc1ncnc2c1ncn2C was tested. Which TGI did it give?
A: > 100 µM

Q: How did the TGI turn out when CCOC(=O)c1c(-c2ccc(O)c(OC)c2)c(C#N)c(=S)n(C2OC(CO)C(O)C(O)C2O)c1-c1ccccc1 (stereo not drawn) was run?
A: > 100 µM

What follows are molecules tested on HCT-15 colon (assay: DTP human tumour cell line panel, 48 h).

Q: Which TGI does the source give for C=C1C(=O)CC2C1CC(=O)/C(C)=C/CCC(C)(O)C2O (stereo not drawn) here?
A: 11.5 µM

Reference: PubChem BioAssay (NCI)
